Earlier results as cited in US20040086492A1, “Method of treating tumor and consignment system of proliferating and processing activated lymphocytes to be used in parallel to pdt” (priority 2001, published 2004).

Conditions: stated as a characteristic of Photofrin

In the case of porfirmer sodium [Photofrin], the “rate taken into cancerous tissue relative to normal tissue” value is given as “approximately 10 times”.
